Measurements from patent publication US20260042764A1, “COMPOSITIONS AND METHODS FOR INHIBITION OF KRAS” (TheRas, Inc., priority 2022, published 2026).

Legend:
[1] = molecular target: T1, Avi-KRAS G12D (1-169) GppNHp/RAF1 RBD-3xFLAG (52-151) (Homo sapiens, UniProt P01116, G12D); experiment: Raf1-KRAS G12D-GppNHP disruption HTRF assay (Biological Example 1); type: binding; conditions: KRAS G12D, GppNHp-loaded; Table 11
T1 construct: Avi-KRAS G12D (1-169)
Outline: (§1)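 Compound disruption of KRAS-GppNHp/RAF1 RBD binding read by HTRF after two sequential 1 h room-temperature incubations (protein mix, then detection reagents), shaken at 700 rpm. Buffer Tris pH 7.5 with MgCl2, BSA, Tween and 10% DMSO; results given as percent activity relative to DMSO (100%).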

[2] = molecular target: T2, Avi-KRAS G12R (1-169) GppNHp/RAF1 RBD-3xFLAG (52-151) (Homo sapiens, UniProt P01116, G12R); experiment: Raf1-KRAS G12R-GppNHP disruption HTRF assay (Biological Example 1); type: binding; conditions: KRAS G12R, GppNHp-loaded; Table 11
T2 construct: Avi-KRAS G12R (1-169)
T2 sequence (P01116 1-169 isoform P01116-2 G12R): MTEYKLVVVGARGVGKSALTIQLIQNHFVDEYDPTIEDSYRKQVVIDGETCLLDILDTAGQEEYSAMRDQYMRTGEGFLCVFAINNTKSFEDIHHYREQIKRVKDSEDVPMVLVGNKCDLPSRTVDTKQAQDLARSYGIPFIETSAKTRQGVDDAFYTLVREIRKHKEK
Outline: as §1

[3] = molecular target: T3, Avi-KRAS G12V (1-169) GppNHp/RAF1 RBD-3xFLAG (52-151) (Homo sapiens, UniProt P01116, G12V); experiment: Raf1-KRAS G12V-GppNHP disruption HTRF assay (Biological Example 1); type: binding; conditions: KRAS G12V, GppNHp-loaded; Table 11
T3 construct: Avi-KRAS G12V (1-169)
T3 sequence (P01116 1-169 isoform P01116-2 G12V): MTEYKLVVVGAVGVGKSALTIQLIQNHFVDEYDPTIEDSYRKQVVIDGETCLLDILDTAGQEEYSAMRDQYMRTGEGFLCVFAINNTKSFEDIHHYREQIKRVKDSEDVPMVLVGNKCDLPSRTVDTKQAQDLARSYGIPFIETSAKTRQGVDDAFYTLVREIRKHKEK
Outline: as §1

[4] = molecular target: T4, Avi-KRAS WT (1-169) GppNHp/RAF1 RBD-3xFLAG (52-151) (Homo sapiens, UniProt P01116); experiment: Raf1-KRAS WT-GppNHP disruption HTRF assay (Biological Example 1); type: binding; conditions: KRAS WT, GppNHp-loaded; Table 11
T4 construct: Avi-KRAS WT (1-169)
T4 sequence (P01116 1-169 isoform P01116-2): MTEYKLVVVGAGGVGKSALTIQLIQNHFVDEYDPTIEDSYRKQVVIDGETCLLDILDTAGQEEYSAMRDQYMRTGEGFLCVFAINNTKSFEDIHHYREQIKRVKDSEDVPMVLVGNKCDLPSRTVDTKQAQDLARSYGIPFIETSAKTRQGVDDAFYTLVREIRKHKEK
Outline: as §1

[5] = tested on: GP2d cells (KRAS G12D); experiment: Cell-based pERK HTRF assay in GP2d cell (Biological Example 2); conditions: GP2d, GP2d (KRAS G12D) cells, pERK HTRF
Outline: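 Phospho-ERK in lysed cells was detected by HTRF using Eu cryptate and d2 antibodies, read between 4 and 24 h at room temperature. Prior to lysis, KRAS G12D GP2d cells, seeded the day before in DMEM with 10% FBS, were exposed to compounds for 60 min. Compounds were tested as 9-point half-log curves from 1 μM or 100 nM top, with 0.25% DMSO.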

T1 sequence (P01116 1-169 isoform P01116-2 G12D): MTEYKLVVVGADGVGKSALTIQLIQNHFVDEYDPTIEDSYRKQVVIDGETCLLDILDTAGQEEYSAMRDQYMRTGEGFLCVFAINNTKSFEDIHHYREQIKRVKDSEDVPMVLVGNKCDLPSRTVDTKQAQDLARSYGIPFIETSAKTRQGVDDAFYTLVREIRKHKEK

Compound	IC50 [1] [nM]	IC50 [2] [nM]	IC50 [3] [nM]	IC50 [4] [nM]	IC50 [5] [nM]
CCN(c1nc(OC[C@@]23CCCN2C[C@H](F)C3)nc2c(F)c(-c3ccc(F)c4sc(N)c(C#N)c34)c(C(F)(F)F)cc12)[C@@H]1CCN(C(C)=O)[C@@H]1C [Compound 189]	100 to 1000	100 to 1000	100 to 1000	100 to 1000	< 100
CN(c1nc(OC[C@@]23CCCN2C[C@H](F)C3)nc2cc(-c3ccc(F)c4sc(N)c(C#N)c34)c(C#N)cc12)[C@H]1C[C@@H](O)C1 [Compound 29]	1000 to 10000	1000 to 10000	1000 to 10000	1000 to 10000	100 to 1000
CN(C[C@H](O)CO)c1nc(OC[C@@]23CCCN2C[C@H](F)C3)nc2c(F)c(-c3ccc(F)c4sc(N)c(C#N)c34)c(C(F)(F)F)cc12 [Compound 79]	< 100	100 to 1000	100 to 1000	100 to 1000	< 100
N#Cc1c(N)sc2c(F)ccc(-c3c(C(F)(F)F)cc4c(N5CC6CCC(C5)C6O)nc(OC[C@@]56CCCN5C[C@H](F)C6)nc4c3F)c12 (some centres unmarked) [Compound 128]	100 to 1000	100 to 1000	1000 to 10000	100 to 1000	< 100
COC[C@@H]1[C@H](N(C)c2nc(OC[C@@]34CCCN3C[C@H](F)C4)nc3c(F)c(-c4ccc(F)c5sc(N)c(C#N)c45)c(C(F)(F)F)cc23)CCN1C(C)=O [Compound 117]	100 to 1000	100 to 1000	100 to 1000	100 to 1000	< 100
N#Cc1c(N)sc2c(F)ccc(-c3c(C(F)(F)F)cc4c(N5CC[C@@H](O)C5)nc(OC[C@@]56CCCN5C[C@H](F)C6)nc4c3F)c12 [Compound 126]	100 to 1000	100 to 1000	100 to 1000	100 to 1000	< 100
CN(c1nc(OC[C@@]23CCCN2C[C@H](F)C3)nc2c(F)c(-c3ccc(F)c4sc(N)c(C#N)c34)c(C(F)(F)F)cc12)[C@H]1C[C@H](O)C1 [Compound 23]	100 to 1000	100 to 1000	100 to 1000	100 to 1000	< 100
CCN(CCO)c1nc(OC[C@@]23CCCN2C[C@H](F)C3)nc2c(F)c(-c3ccc(F)c4sc(N)c(C#N)c34)c(C(F)(F)F)cc12 [Compound 74]	< 100	< 100	< 100	< 100	< 100
N#Cc1c(N)sc2c(F)ccc(-c3c(C(F)(F)F)cc4c(N5CC6CCC(C5)O6)nc(OC[C@@]56CCCN5C[C@H](F)C6)nc4c3F)c12 [Compound 130]	100 to 1000	100 to 1000	1000 to 10000	100 to 1000	< 100
CN(C[C@@H](O)CO)c1nc(OC[C@@]23CCCN2C[C@H](F)C3)nc2c(F)c(-c3ccc(F)c4sc(N)c(C#N)c34)c(C(F)(F)F)cc12 [Compound 78]	< 100	100 to 1000	100 to 1000	100 to 1000	< 100
N#CC[C@@H]1CN(c2nc(OC[C@@]34CCCN3C[C@H](F)C4)nc3c(F)c(-c4ccc(F)c5sc(N)c(C#N)c45)c(C(F)(F)F)cc23)CCO1 [Compound 136]	100 to 1000	100 to 1000	1000 to 10000	100 to 1000	< 100
CN(c1nc(OC[C@@]23CCCN2C[C@H](F)C3)nc2c(F)c(-c3ccc(F)c4sc(N)c(C#N)c34)c(C(F)(F)F)cc12)[C@@H]1CCS(=O)(=O)C1 [Compound 93]	100 to 1000	100 to 1000	100 to 1000	100 to 1000	< 100
CCN(CCO)c1nc(OCC23CCCN2CCC3)nc2c(F)c(-c3ccc(F)c4sc(N)c(C#N)c34)c(C(F)(F)F)cc12 [Compound 176]	< 100	100 to 1000	100 to 1000	100 to 1000	< 100
CCN(c1nc(OC[C@@]23CCCN2C[C@H](F)C3)nc2c(F)c(-c3ccc(F)c4sc(N)c(C#N)c34)c(C(F)(F)F)cc12)[C@@H]1CCN(C(C)=O)[C@@H]1COC [Compound 118]	100 to 1000	100 to 1000	100 to 1000	100 to 1000	< 100
CN(c1nc(OC[C@@]23CCCN2C[C@H](F)C3)nc2c(F)c(-c3ccc(F)c4sc(N)c(C#N)c34)c(C(F)(F)F)cc12)C(CO)CO [Compound 80]	< 100	100 to 1000	100 to 1000	100 to 1000	< 100
N#Cc1c(N)sc2c(F)ccc(-c3c(C(F)(F)F)cc4c(N5CC[C@@H]5CO)nc(OC[C@@]56CCCN5C[C@H](F)C6)nc4c3F)c12 [Compound 168]	< 100	100 to 1000	100 to 1000	< 100	< 100
CN(c1nc(OC[C@@]23CCCN2C[C@H](F)C3)nc2c(F)c(-c3ccc(F)c4sc(N)c(C#N)c34)c(C(F)(F)F)cc12)[C@@H]1CCOC1 [Compound 132]	100 to 1000	100 to 1000	100 to 1000	100 to 1000	< 100
C[C@@H](O)CN(C)c1nc(OC[C@@]23CCCN2C[C@H](F)C3)nc2c(F)c(-c3ccc(F)c4sc(N)c(C#N)c34)c(C(F)(F)F)cc12 [Compound 71]	< 100	100 to 1000	100 to 1000	100 to 1000	< 100
N#Cc1c(N)sc2c(F)ccc(-c3c(C(F)(F)F)cc4c(N5CCN(CCO)C(=O)C5)nc(OC[C@@]56CCCN5C[C@H](F)C6)nc4c3F)c12 [Compound 121]	100 to 1000	100 to 1000	100 to 1000	100 to 1000	100 to 1000
C[C@@H]1CN(c2nc(OC[C@@]34CCCN3C[C@H](F)C4)nc3c(F)c(-c4ccc(F)c5sc(N)c(C#N)c45)c(C(F)(F)F)cc23)C[C@H](C)O1 [Compound 143]	100 to 1000	1000 to 10000	1000 to 10000	100 to 1000	100 to 1000
N#Cc1c(N)sc2c(F)ccc(-c3c(C(F)(F)F)cc4c(N5CCC(F)CC5)nc(OC[C@@]56CCCN5C[C@H](F)C6)nc4c3F)c12 [Compound 151]	100 to 1000	100 to 1000	100 to 1000	100 to 1000	< 100
CN(c1nc(OC[C@@]23CCCN2C[C@H](F)C3)nc2c(F)c(-c3ccc(F)c4sc(N)c(C#N)c34)c(C(F)(F)F)cc12)[C@@H]1C[C@H](O)[C@H]1CO [Compound 181]	< 100	100 to 1000	100 to 1000	< 100	< 100
N#Cc1c(N)sc2c(F)ccc(-c3c(C(F)(F)F)cc4c(N5CCC(F)(F)CC5)nc(OC[C@@]56CCCN5C[C@H](F)C6)nc4c3F)c12 [Compound 150]	100 to 1000	100 to 1000	1000 to 10000	100 to 1000	< 100
CO[C@H]1C[C@@H](N(C)c2nc(OC[C@@]34CCCN3C[C@H](F)C4)nc3c(F)c(-c4ccc(F)c5sc(N)c(C#N)c45)c(C(F)(F)F)cc23)C1 [Compound 27]	100 to 1000	100 to 1000	1000 to 10000	100 to 1000	< 100
C[C@@H](O)C1CCN(c2nc(OC[C@@]34CCCN3C[C@H](F)C4)nc3c(F)c(-c4ccc(F)c5sc(N)c(C#N)c45)c(C(F)(F)F)cc23)CC1 [Compound 49]	< 100	100 to 1000	100 to 1000	100 to 1000	< 100
CN(c1nc(OC[C@@]23CCCN2C[C@H](F)C3)nc2c(F)c(-c3ccc(F)c4sc(N)c(C#N)c34)c(C(F)(F)F)cc12)[C@@H]1CCN(C(=O)CC#N)C1 (atropisomer, axis not shown) [Compound 103]	100 to 1000	100 to 1000	100 to 1000	100 to 1000	< 100
CN(c1nc(OC[C@@]23CCCN2C[C@H](F)C3)nc2c(F)c(-c3ccc(F)c4sc(N)c(C#N)c34)c(C#N)cc12)[C@H]1C[C@@H](O)C1 [Compound 32, 7-(2-amino-3-cyano-7-fluoro-benzothiophen-4-yl)-8-fluoro-2-[[(2R,8S)-2-fluoro-1,2,3,5,6,7-hexahydropyrrolizin-8-yl]methoxy]-4-[(3-hydroxycyclobutyl)-methyl-amino]quinazoline-6-carbonitrile]	100 to 1000	100 to 1000	1000 to 10000	100 to 1000	100 to 1000
C[C@@H]1CN(c2nc(OC[C@@]34CCCN3C[C@H](F)C4)nc3c(F)c(-c4ccc(F)c5sc(N)c(C#N)c45)c(C(F)(F)F)cc23)CCO1 [Compound 141]	100 to 1000	100 to 1000	1000 to 10000	100 to 1000	< 100
